The numbers were not newly measured in patent publication US4018912A, “Tripeptide derivatives with central nervous system activity and preparation thereof” (Ayerst McKenna and Harrison Ltd., priority 1975, dated 1977), which cites them from elsewhere.

Like-named read-outs stand apart in the source and are kept apart here.

One data set has as its system effects of L-DOPA. Conditions: literature (Plotnikoff et al. 1971; Friedman et al. 1973).
For data set [1] the following is noted: prior art; due to rapid inactivation in the mammalian body.
A further data set relates to effects of oxotremorine. Conditions: literature (Plotnikoff et al. 1972).
For data set [2], the system named is sedative effects of deserpidine. Conditions: mice; literature (Plotnikoff et al. 1973).
For data set [3] the test system is unchanged. Conditions: monkeys; literature (Plotnikoff et al. 1973).
The conditions of data set [4]: in vivo.

For the substance “H-L-prolyl-L-leucyl-glycinamide [H--Pro--Leu--Gly--NH2]”, the “potentiation of the behavioral effects of L-DOPA” value in the data set on effects of L-DOPA was “potentiates the behavioral effects of (3,4-dihydroxyphenyl)-L-alanine (L-DOPA)”. Besides, in data set [1], the duration of action result is recorded as “short duration of action”. The “antagonism of the effects of oxotremorine” value with effects of oxotremorine is recorded as “antagonizes the effects of oxotremorine”. Further, the “reversal of the sedative effects of deserpidine” value in data set [2] and in data set [3] was “reverses the sedative effects of deserpidine” in each case. Also, the “first step in the inactivation” value in data set [4] was “proteolytic cleavage of the Pro-Leu bond with formation of proline and leucyl-glycinamide”.
